The record followed here is PubChem BioAssay (NCI).

Several values for one entry are separate records, joined by “and”; a condition that tells them apart may be missing. Identical values can stand only once.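 Briefly, cells in 96-well plates were exposed to five compound concentrations for 48 h, and endpoints were estimated by linear interpolation. Here, GI50 denotes the concentration required for 50% inhibition of growth. Definition used: TGI = concentration required for complete inhibition of growth.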 A value given as a limit tells only on which side of the number the result lay.

Among the test systems are BT-549 breast; CCRF-CEM leukemia; NCI/ADR-RES ovarian; T-47D breast; TK-10 renal.
What all share (experiment): NCI anticancer screen, dose series, 48 h

As to `NS(=O)(=O)c1ccc(N=Nc2c(O)c(C(=O)O)cc3ccccc23)cc1`, the TGI in the experiment on BT-549 breast, with CCRF-CEM leukemia, in the experiment on NCI/ADR-RES ovarian, with T-47D breast and in the experiment on TK-10 renal was over 100 µM in each case.

In the case of `NC(N)=N/N=C/c1c(Cl)cccc1Cl`, the GI50 with BT-549 breast is 16 µM; in the experiment on CCRF-CEM leukemia it was 28.5 µM; in the experiment with NCI/ADR-RES ovarian, 28.9 µM; in the experiment on T-47D breast, 14.7 µM; in the experiment on TK-10 renal, 21.9 µM. Further, the TGI is 44.9 µM in the experiment on BT-549 breast; over 100 µM with CCRF-CEM leukemia; over 100 µM with NCI/ADR-RES ovarian; 39.6 µM in the experiment on T-47D breast; 66.3 µM in the experiment with TK-10 renal.

For the molecule `CCn1c(O)c(/C=N/NC(=O)C(C)c2ccc(CC(C)C)cc2)sc1=S` (centres undefined), the GI50 with BT-549 breast is 0.98 µM; with CCRF-CEM leukemia, 0.23 µM; in the experiment on NCI/ADR-RES ovarian, 0.276 µM; with T-47D breast it was 0.56 µM; with TK-10 renal it was 2.28 µM. Also, the TGI in the experiment on BT-549 breast was 10.3 µM; in the experiment on CCRF-CEM leukemia, over 100 µM; in the experiment on NCI/ADR-RES ovarian, over 38.8 µM; in the experiment with T-47D breast, over 100 µM; with TK-10 renal, over 50.7 µM.

Turning to `NC1CCN(Cc2ccccc2)CC1`, the GI50 with CCRF-CEM leukemia, with NCI/ADR-RES ovarian, in the experiment with T-47D breast and with TK-10 renal was over 100 µM in each case. For the same molecule, the TGI in the experiment on CCRF-CEM leukemia, in the experiment with NCI/ADR-RES ovarian, in the experiment on T-47D breast and in the experiment on TK-10 renal was over 100 µM throughout.

Regarding `CCCC(=O)Nc1cn(COC)c(C(=O)N2C[C@@H]3C[C@]34C2=CC(=O)c2[nH]cc(C)c24)n1`, the TGI in the experiment with BT-549 breast was 24.7 µM and 21.7 µM; in the experiment with NCI/ADR-RES ovarian, 20.7 µM and 28.9 µM; in the experiment with T-47D breast, 38.4 µM and 21.1 µM; with TK-10 renal, 19.1 µM and 6.18 µM. Further, the GI50 is 1.96 µM in the experiment with CCRF-CEM leukemia, 14.9 µM with NCI/ADR-RES ovarian, 7.01 µM in the experiment on T-47D breast and 3 µM in the experiment with TK-10 renal.

Turning to `NC(N)=NCCCC(=O)O`, the TGI in the experiment with BT-549 breast, in the experiment on CCRF-CEM leukemia, in the experiment on NCI/ADR-RES ovarian, in the experiment with T-47D breast and in the experiment on TK-10 renal was over 100 µM throughout.

With `NNC(=O)CNc1cccc(Br)c1`, the TGI in the experiment on BT-549 breast, with NCI/ADR-RES ovarian, in the experiment with T-47D breast and with TK-10 renal was over 100 µM in each case.

On to `CCN1CCN(c2cc(C)c3cc(NC(=O)c4ccc(OC)c(OC)c4)ccc3n2)CC1`, for which the GI50 in the experiment on BT-549 breast was over 33 µM; in the experiment on CCRF-CEM leukemia it was over 43.1 µM; with NCI/ADR-RES ovarian, over 49.1 µM; with T-47D breast, over 39 µM; with TK-10 renal, over 59 µM. Also, the TGI in the experiment with BT-549 breast was over 100 µM; in the experiment with CCRF-CEM leukemia, over 100 µM; in the experiment on NCI/ADR-RES ovarian it was over 100 µM; in the experiment on T-47D breast, over 100 µM; in the experiment on TK-10 renal it was 98.5 µM.

As for `CCOc1ccc(/C=C2\N=C(c3ccc([N+](=O)[O-])cc3)OC2=O)cc1`, the TGI with BT-549 breast, in the experiment on CCRF-CEM leukemia, with T-47D breast and in the experiment on TK-10 renal was over 100 µM in each case.

As to `COc1ccc2nc3ccccc3c(NCc3ccc(F)cc3)c2c1`, the GI50 is 4.75 µM with BT-549 breast; 2.06 µM in the experiment with CCRF-CEM leukemia; 1.82 µM with NCI/ADR-RES ovarian; 3.11 µM in the experiment on T-47D breast; 2.89 µM with TK-10 renal. In addition, the TGI in the experiment with BT-549 breast is 11.4 µM; in the experiment with CCRF-CEM leukemia, 23.4 µM; in the experiment on NCI/ADR-RES ovarian it was 8.24 µM; in the experiment on T-47D breast, 13.6 µM; with TK-10 renal, 10.3 µM.

In the case of `Cc1cc(N[C@@H]2CCC[C@H](Nc3ccnc4cc(Cl)ccc34)C2)nc(N2CCCCCC2)n1`, the GI50 with BT-549 breast was 1.75 µM; with CCRF-CEM leukemia, 1.59 µM; in the experiment on NCI/ADR-RES ovarian, 1.69 µM; with T-47D breast it was 2.22 µM; in the experiment with TK-10 renal, 1.73 µM. Besides, the TGI in the experiment on BT-549 breast was 3.75 µM; with CCRF-CEM leukemia, 10.7 µM; in the experiment with NCI/ADR-RES ovarian it was 3.9 µM; in the experiment on T-47D breast it was 5.38 µM; in the experiment on TK-10 renal, 3.52 µM.

For `CNCCOC(=O)/C=C1\CC[C@H]2[C@@H]([C@@H](O)C(=O)[C@@H]3[C@]2(C)CC[C@H](O)[C@]3(C)C(=O)OC)[C@H]1C`, the GI50 was 0.286 µM in the experiment with BT-549 breast; 0.291 µM with CCRF-CEM leukemia; 0.22 µM with NCI/ADR-RES ovarian; 0.33 µM in the experiment with T-47D breast; 0.262 µM in the experiment with TK-10 renal. In addition, the TGI came to 1.09 µM in the experiment with BT-549 breast; 1.09 µM in the experiment on CCRF-CEM leukemia; 0.444 µM with NCI/ADR-RES ovarian; 1.67 µM in the experiment with T-47D breast; 0.76 µM in the experiment with TK-10 renal.

As for `O=C(Nc1cc(C(F)(F)F)cc(C(F)(F)F)c1)c1cc(Cl)ccc1O`, the GI50 is 0.206 µM and 0.213 µM with BT-549 breast; 0.237 µM and 0.378 µM in the experiment on CCRF-CEM leukemia; 0.227 µM and 0.257 µM in the experiment on NCI/ADR-RES ovarian; 0.15 µM and 0.194 µM in the experiment on T-47D breast; 0.442 µM and 0.387 µM in the experiment with TK-10 renal. Also, the TGI in the experiment with BT-549 breast is 0.714 µM and 0.712 µM; in the experiment on CCRF-CEM leukemia, 1.3 µM and 7.79 µM; in the experiment on NCI/ADR-RES ovarian, > 2.76 µM and 3.87 µM; in the experiment on T-47D breast it was 0.604 µM and 1.24 µM; with TK-10 renal, > 10 µM and 11.1 µM.

As for `C=CCC1(c2ccc(OC)cc2)C=CC(=O)CC1` (centres undefined), the TGI in the experiment with BT-549 breast, with CCRF-CEM leukemia, in the experiment with NCI/ADR-RES ovarian, in the experiment on T-47D breast and with TK-10 renal was over 100 µM throughout.

With `CCOC(=O)Nc1cc2c(c(N)n1)N=C(c1ccccc1)CO2`, the GI50 was 23.1 µM with BT-549 breast; 0.0653 µM in the experiment with CCRF-CEM leukemia; 0.061 µM in the experiment with NCI/ADR-RES ovarian; 20.4 µM with T-47D breast; 0.704 µM in the experiment on TK-10 renal. In addition, the TGI with BT-549 breast was over 100 µM; in the experiment with CCRF-CEM leukemia, 4.42 µM; in the experiment with NCI/ADR-RES ovarian, 21.5 µM; with T-47D breast, 73.3 µM; in the experiment with TK-10 renal, 19.3 µM.

Turning to `CN(C)C1CCN(C(=O)c2ccc(NC(=O)Nc3ccc(-c4nc(N5CCOCC5)c5cccn5n4)cc3)cc2)CC1`, the GI50 in the experiment on BT-549 breast is 0.177 µM; with CCRF-CEM leukemia, 0.0483 µM; in the experiment with NCI/ADR-RES ovarian it was 59.5 µM; with T-47D breast it was 0.0134 µM; with TK-10 renal, 0.393 µM. The TGI in the experiment on BT-549 breast is 2.25 µM; with CCRF-CEM leukemia it was 4.69 µM; in the experiment with NCI/ADR-RES ovarian it was over 100 µM; in the experiment with T-47D breast, 0.0664 µM; in the experiment on TK-10 renal, 3.84 µM.
